Experimental data published in patent US9469650B2, “Melampomagnolide B derivatives” (BOARD OF TRUSTEES OF THE UNIVERSITY OF ARKANSAS, priority 2013, dated 2016).
Like-named read-outs stand apart in the source and are kept apart here.

What was measured:
SK-MEL-5 = test: panel of 60 human tumor cell lines, growth inhibition (Melanoma); conditions: 8K-MEL-5
HOP-62 = test: panel of 60 human tumor cell lines, growth inhibition (Non-Small Cell Lung Cancer); conditions: HOP-62
U251 = test: panel of 60 human tumor cell lines, growth inhibition (CNS Cancer); conditions: U251
HOP-92 = test: panel of 60 human tumor cell lines, growth inhibition (Non-Small Cell Lung Cancer); conditions: HOP-92
DU-145 = test: panel of 60 human tumor cell lines, growth inhibition (Prostate Cancer); conditions: DU-145
T-47D = test: panel of 60 human tumor cell lines, growth inhibition (Breast Cancer); conditions: T-47D
MOLT-4 = test: panel of 60 human tumor cell lines, growth inhibition (Leukemia); conditions: MOLT-4
K-562 = test: as above; conditions: K-562
UACC-257 = test: panel of 60 human tumor cell lines, growth inhibition (Melanoma); conditions: UACC-257
A498 = test: panel of 60 human tumor cell lines, growth inhibition (Renal Cancer); conditions: A498
HS 578T = test: panel of 60 human tumor cell lines, growth inhibition (Breast Cancer); conditions: HS 578T
786-0 = test: panel of 60 human tumor cell lines, growth inhibition (Renal Cancer); conditions: 786-0
OVCAR-3 = test: panel of 60 human tumor cell lines, growth inhibition (Ovarian Cancer); conditions: OVCAR-3
MDA-MB-468 = test: panel of 60 human tumor cell lines, growth inhibition (Breast Cancer); conditions: MDA-MB-468
NCI-H226 = test: panel of 60 human tumor cell lines, growth inhibition (Non-Small Cell Lung Cancer); conditions: NCI-H226
PC-3 = test: panel of 60 human tumor cell lines, growth inhibition (Prostate Cancer); conditions: PC-3
NCI-H460 = test: panel of 60 human tumor cell lines, growth inhibition (Non-Small Cell Lung Cancer); conditions: NCI-H460

C=C1C(=O)O[C@H]2[C@H]1CC/C(COC(=O)CCC(=O)N1CCC(C)CC1)=C\CC[C@@]1(C)O[C@@H]21 [JVM 2-70]
Percent Growth (SK-MEL-5; Log10 Concentration −4.0): −93% | Percent Growth (SK-MEL-5; Log10 Concentration −5.0): 42% | Percent Growth (SK-MEL-5; Log10 Concentration −6.0): 96% | Percent Growth (SK-MEL-5; Log10 Concentration −7.0): 99% | Percent Growth (SK-MEL-5; Log10 Concentration −8.0): 98% | GI50 (SK-MEL-5; NCI five dose): 7.17 µM | TGI (SK-MEL-5; NCI five dose): 2.05E−5 | Percent Growth (HOP-62; Log10 Concentration −4.0): −68% | Percent Growth (HOP-62; Log10 Concentration −5.0): 78% | Percent Growth (HOP-62; Log10 Concentration −6.0): 91% | Percent Growth (HOP-62; Log10 Concentration −7.0): 92% | Percent Growth (HOP-62; Log10 Concentration −8.0): 86% | GI50 (HOP-62; NCI five dose): 15.5 µM | TGI (HOP-62; NCI five dose): 3.41E−5 | Percent Growth (U251; Log10 Concentration −4.0): −90% | Percent Growth (U251; Log10 Concentration −5.0): 90% | Percent Growth (U251; Log10 Concentration −6.0): 99% | Percent Growth (U251; Log10 Concentration −7.0): 95% | Percent Growth (U251; Log10 Concentration −8.0): 95% | GI50 (U251; NCI five dose): 16.7 µM | TGI (U251; NCI five dose): 3.16E−5 | Percent Growth (HOP-92; Log10 Concentration −4.0): −91% | Percent Growth (HOP-92; Log10 Concentration −5.0): 3% | Percent Growth (HOP-92; Log10 Concentration −6.0): 71% | Percent Growth (HOP-92; Log10 Concentration −7.0): 83% | Percent Growth (HOP-92; Log10 Concentration −8.0): 87% | GI50 (HOP-92; NCI five dose): 2.05 µM | TGI (HOP-92; NCI five dose): 1.07E−5 | Percent Growth (DU-145; Log10 Concentration −4.0): −89% | Percent Growth (DU-145; Log10 Concentration −5.0): 26% | Percent Growth (DU-145; Log10 Concentration −6.0): 95% | Percent Growth (DU-145; Log10 Concentration −7.0): 106% | Percent Growth (DU-145; Log10 Concentration −8.0): 107% | GI50 (DU-145; NCI five dose): 4.44 µM | TGI (DU-145; NCI five dose): 1.68E−5 | Percent Growth (T-47D; Log10 Concentration −4.0): −48% | Percent Growth (T-47D; Log10 Concentration −5.0): 34% | Percent Growth (T-47D; Log10 Concentration −6.0): 94% | Percent Growth (T-47D; Log10 Concentration −7.0): 94% | Percent Growth (T-47D; Log10 Concentration −8.0): 86% | GI50 (T-47D; NCI five dose): 5.45 µM | TGI (T-47D; NCI five dose): 2.61E−5 | Percent Growth (MOLT-4; Log10 Concentration −4.0): −49% | Percent Growth (MOLT-4; Log10 Concentration −5.0): −9% | Percent Growth (MOLT-4; Log10 Concentration −6.0): 115% | Percent Growth (MOLT-4; Log10 Concentration −7.0): 119% | Percent Growth (MOLT-4; Log10 Concentration −8.0): 110% | GI50 (MOLT-4; NCI five dose): 3.33 µM | TGI (MOLT-4; NCI five dose): 8.45E−6 | Percent Growth (K-562; Log10 Concentration −4.0): −38% | Percent Growth (K-562; Log10 Concentration −5.0): 7% | Percent Growth (K-562; Log10 Concentration −6.0): 90% | Percent Growth (K-562; Log10 Concentration −7.0): 109% | Percent Growth (K-562; Log10 Concentration −8.0): 109% | GI50 (K-562; NCI five dose): 3.06 µM | TGI (K-562; NCI five dose): 1.45E−5 | Percent Growth (UACC-257; Log10 Concentration −4.0): −86% | Percent Growth (UACC-257; Log10 Concentration −5.0): 23% | Percent Growth (UACC-257; Log10 Concentration −6.0): 83% | Percent Growth (UACC-257; Log10 Concentration −7.0): 92% | Percent Growth (UACC-257; Log10 Concentration −8.0): 91% | GI50 (UACC-257; NCI five dose): 3.57 µM | TGI (UACC-257; NCI five dose): 1.64E−5 | Percent Growth (A498; Log10 Concentration −4.0): −92% | Percent Growth (A498; Log10 Concentration −5.0): 29% | Percent Growth (A498; Log10 Concentration −6.0): 67% | Percent Growth (A498; Log10 Concentration −7.0): 54% | Percent Growth (A498; Log10 Concentration −8.0): 58% | GI50 (A498; NCI five dose): 2.77 µM | TGI (A498; NCI five dose): 1.73E−5 | Percent Growth (HS 578T; Log10 Concentration −4.0): 6% | Percent Growth (HS 578T; Log10 Concentration −5.0): 70% | Percent Growth (HS 578T; Log10 Concentration −6.0): 86% | Percent Growth (HS 578T; Log10 Concentration −7.0): 92% | Percent Growth (HS 578T; Log10 Concentration −8.0): 92% | GI50 (HS 578T; NCI five dose): 20.4 µM | TGI (HS 578T; NCI five dose): >1.00E−4 | Percent Growth (786-0; Log10 Concentration −4.0): −78% | Percent Growth (786-0; Log10 Concentration −5.0): 39% | Percent Growth (786-0; Log10 Concentration −6.0): 100% | Percent Growth (786-0; Log10 Concentration −7.0): 98% | Percent Growth (786-0; Log10 Concentration −8.0): 90% | GI50 (786-0; NCI five dose): 6.64 µM | TGI (786-0; NCI five dose): 2.17E−5 | Percent Growth (OVCAR-3; Log10 Concentration −4.0): −96% | Percent Growth (OVCAR-3; Log10 Concentration −5.0): −2% | Percent Growth (OVCAR-3; Log10 Concentration −6.0): 88% | Percent Growth (OVCAR-3; Log10 Concentration −7.0): 105% | Percent Growth (OVCAR-3; Log10 Concentration −8.0): 109% | GI50 (OVCAR-3; NCI five dose): 2.85 to 6 µM | TGI (OVCAR-3; NCI five dose): 9.47E−6 | Percent Growth (HL-60(TB); Log10 Concentration −4.0): −59% | Percent Growth (HL-60(TB); Log10 Concentration −5.0): −12% | Percent Growth (HL-60(TB); Log10 Concentration −6.0): 112% | Percent Growth (HL-60(TB); Log10 Concentration −7.0): 111% | Percent Growth (HL-60(TB); Log10 Concentration −8.0): 110% | GI50 (HL-60(TB); NCI five dose): 3.16 µM | TGI (HL-60(TB); NCI five dose): 7.96E−6 | CC50 (HL-60(TB); read-out: LC50, NCI five dose): 63.1 µM | Percent Growth (MDA-MB-468; Log10 Concentration −4.0): −69% | Percent Growth (MDA-MB-468; Log10 Concentration −5.0): −33% | Percent Growth (MDA-MB-468; Log10 Concentration −6.0): 52% | Percent Growth (MDA-MB-468; Log10 Concentration −7.0): 92% | Percent Growth (MDA-MB-468; Log10 Concentration −8.0): 88% | GI50 (MDA-MB-468; NCI five dose): 1.06 µM | TGI (MDA-MB-468; NCI five dose): 4.06E−6 | CC50 (MDA-MB-468; read-out: LC50, NCI five dose): 29.8 µM | Percent Growth (NCI-H226; Log10 Concentration −4.0): −59% | Percent Growth (NCI-H226; Log10 Concentration −5.0): 19% | Percent Growth (NCI-H226; Log10 Concentration −6.0): 87% | Percent Growth (NCI-H226; Log10 Concentration −7.0): 93% | Percent Growth (NCI-H226; Log10 Concentration −8.0): 92% | GI50 (NCI-H226; NCI five dose): 3.51 µM | TGI (NCI-H226; NCI five dose): 1.75E−5 | Percent Growth (PC-3; Log10 Concentration −4.0): −72% | Percent Growth (PC-3; Log10 Concentration −5.0): 66% | Percent Growth (PC-3; Log10 Concentration −6.0): 94% | Percent Growth (PC-3; Log10 Concentration −7.0): 93% | Percent Growth (PC-3; Log10 Concentration −8.0): 94% | GI50 (PC-3; NCI five dose): 13 µM | TGI (PC-3; NCI five dose): 3.00E−5 | Percent Growth (NCI-H460; Log10 Concentration −4.0): −57% | Percent Growth (NCI-H460; Log10 Concentration −5.0): 77% | Percent Growth (NCI-H460; Log10 Concentration −6.0): 99% | Percent Growth (NCI-H460; Log10 Concentration −7.0): 101% | Percent Growth (NCI-H460; Log10 Concentration −8.0): 100% | GI50 (NCI-H460; NCI five dose): 16 µM | TGI (NCI-H460; NCI five dose): 3.76E−5
